The target of the test is ROCK2 protein (Homo sapiens, UniProt O75116). Kind of test: Degradation inducing activity of ROCK2 protein in HUVEC cells, Western blotting (Simple Western JESS). It counts as cell-based. Details: endogenous in cells; host or cells: HUVEC (ATCC CRL-1730). Conditions: HUVEC, 24 h; for inhibition at 1 µM: degradation rate at 1 µM; for inhibition at 10 µM: degradation rate at 10 µM. An outline of the steps: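 HUVEC cells treated 24 h with compound at 10 µM or 1 µM, then lysed; ROCK2 quantified by capillary Western (Simple Western JESS) using rabbit mAb D1B1, normalized to total loaded protein. Degradation rate (%) calculated relative to DMSO control set at 100%, binned A ≥75%, B 50–75%, C 25–50%, D <25%.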
Chain of ROCK2 protein (O75116 whole entry): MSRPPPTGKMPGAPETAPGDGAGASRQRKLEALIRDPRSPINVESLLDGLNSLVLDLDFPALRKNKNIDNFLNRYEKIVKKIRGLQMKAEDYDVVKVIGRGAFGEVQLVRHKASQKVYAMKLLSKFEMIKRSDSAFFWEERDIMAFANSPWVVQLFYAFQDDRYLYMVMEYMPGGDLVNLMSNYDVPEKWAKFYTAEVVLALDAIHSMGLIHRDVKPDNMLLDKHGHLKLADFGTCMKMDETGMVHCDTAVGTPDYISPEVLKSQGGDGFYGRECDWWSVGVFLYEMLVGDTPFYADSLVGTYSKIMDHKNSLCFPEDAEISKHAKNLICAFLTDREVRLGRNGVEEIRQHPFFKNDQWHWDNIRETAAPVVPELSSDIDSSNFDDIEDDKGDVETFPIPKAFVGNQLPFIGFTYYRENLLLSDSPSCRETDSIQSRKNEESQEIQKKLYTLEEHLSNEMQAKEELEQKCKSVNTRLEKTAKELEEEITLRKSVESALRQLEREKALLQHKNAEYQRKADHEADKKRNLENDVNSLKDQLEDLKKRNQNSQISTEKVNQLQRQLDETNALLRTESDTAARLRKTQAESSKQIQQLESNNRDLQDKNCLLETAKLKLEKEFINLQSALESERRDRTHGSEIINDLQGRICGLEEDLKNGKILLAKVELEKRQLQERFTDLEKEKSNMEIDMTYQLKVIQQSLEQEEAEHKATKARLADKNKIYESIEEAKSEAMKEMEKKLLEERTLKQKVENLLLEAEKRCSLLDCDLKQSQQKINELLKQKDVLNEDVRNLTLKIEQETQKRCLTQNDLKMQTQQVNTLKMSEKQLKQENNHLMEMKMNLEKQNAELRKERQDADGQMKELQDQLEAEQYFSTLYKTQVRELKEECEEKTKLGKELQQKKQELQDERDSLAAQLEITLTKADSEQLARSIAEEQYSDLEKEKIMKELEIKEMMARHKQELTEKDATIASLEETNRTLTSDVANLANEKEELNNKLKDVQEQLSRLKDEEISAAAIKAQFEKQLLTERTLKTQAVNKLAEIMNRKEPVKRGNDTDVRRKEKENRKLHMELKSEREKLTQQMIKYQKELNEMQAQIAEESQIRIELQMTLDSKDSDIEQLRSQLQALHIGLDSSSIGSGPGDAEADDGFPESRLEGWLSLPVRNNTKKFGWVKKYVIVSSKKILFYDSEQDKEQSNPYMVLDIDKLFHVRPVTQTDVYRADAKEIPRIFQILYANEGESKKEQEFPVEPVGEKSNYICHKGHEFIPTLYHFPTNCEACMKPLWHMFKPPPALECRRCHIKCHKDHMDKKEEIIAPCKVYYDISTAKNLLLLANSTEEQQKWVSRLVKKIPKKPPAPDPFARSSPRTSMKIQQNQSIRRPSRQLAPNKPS

Compound `COC[C@H]1CN[C@H](C)CN1CC(=O)N1CC(C)(C)c2nc(CN(C)CCOCCOCCOCCNC[C@@H](C(=O)Nc3ccc4cnccc4c3)c3ccccc3)c(Cc3ccc(F)cc3)cc21` [Example 38, (S)-1-(6-(4-Fluorobenzyl)-1-(2-((2R,5R)-2-(methoxymethyl)-5-methylpiperazin-1-yl)acetyl)-3,3-dimethyl-2,3-dihydro-1H-pyrrolo[3,2-b]pyridin-5-yl)-N-(isoquinolin-6-yl)-2-methyl-16-phenyl-5,8,11-trioxa-2,14-diazaheptadecan-17-amide] displayed an inhibition at 1 µM of under 25% and an inhibition at 10 µM of at least 75%.

Consider `COC[C@H]1CN[C@H](C)CN1CC(=O)N1CC(C)(C)c2ncc(Cc3ccccc3OCCOCCOCCOCCOCCOCCOCCOCCN[C@H](Cc3cccc(F)c3)C(=O)Nc3ccc(-c4ccncc4)cc3)cc21` [Example 77, (R)-2-(3-Fluorobenzyl)-26-(2-((1-(2-((2R,5R)-2-(methoxymethyl)-5-methylpiperazin-1-yl)acetyl)-3,3-dimethyl-2,3-dihydro-1H-pyrrolo[3,2-b]pyridin-6-yl)methyl)phenoxy)-N-(4-(pyridin-4-yl)phenyl)-6,9,12,15,18,21,24-heptaoxa-3-azahexacosanamide], for which the inhibition at 1 µM is under 25% and the inhibition at 10 µM was at least 75%.

Regarding `C[C@@H]1CN(CC(=O)N2CC(C)(C)c3ncc(Cc4ccc(F)cc4)cc32)[C@@H](CN(C)CCOCCOCCOCCOCCOCCN[C@H](Cc2cccc(F)c2)C(=O)Nc2ccc(-c3ccncc3)cc2)CN1` [Example 12, (R)-21-(3-Fluorobenzyl)-1-((2R,5R)-1-(2-(6-(4-fluorobenzyl)-3,3-dimethyl-2,3-dihydro-1H-pyrrolo[3,2-b]pyridin-1-yl)-2-oxoethyl)-5-methylpiperazin-2-yl)-2-methyl-N-(4-(pyridin-4-yl)phenyl)-5,8,11,14,17-pentaoxa-2,20-diazadocosan-22-amide], the inhibition at 1 µM was under 25% and the inhibition at 10 µM was in the range of 25 to 50%.

The compound `COC[C@H]1CN[C@H](C)CN1CC(=O)N1CC(C)(C)c2ncc(Cc3cccc(OCCOCCOCCOCCN[C@H](C)c4ccc(C(=O)Nc5ccncc5)cc4)c3)cc21` [Example 45, 4-((R)-14-(3-((1-(2-((2R,5R)-2-(Methoxymethyl)-5-methylpiperazin-1-yl)acetyl)-3,3-dimethyl-2,3-dihydro-1H-pyrrolo[3,2-b]pyridin-6-yl)methyl)phenoxy)-6,9,12-trioxa-3-azatetradecan-2-yl)-N-(pyridin-4-yl)benzamide] had an inhibition at 1 µM of under 25% and an inhibition at 10 µM of 50 to 75%.

In turn, `C[C@@H]1CN(CC(=O)N2CC(C)(C)c3ncc(Cc4ccc(F)cc4)cc32)[C@@H](CN(C)CCOCCOCCOCCN[C@H](Cc2cccc(F)c2)C(=O)Nc2ccc(-c3ccncc3)cc2)CN1` [Example 10, (R)-15-(3-Fluorobenzyl)-1-((2R,5R)-1-(2-(6-(4-fluorobenzyl)-3,3-dimethyl-2,3-dihydro-1H-pyrrolo[3,2-b]pyridin-1-yl)-2-oxoethyl)-5-methylpiperazin-2-yl)-2-methyl-N-(4-(pyridin-4-yl)phenyl)-5,8,11-trioxa-2,14-diazahexadecan-16-amide] yielded an inhibition at 1 µM of 25 to 50% and an inhibition at 10 µM of at least 75%.

Regarding `C[C@@H]1CN(CC(=O)N2CC(C)(C)c3ncc(Cc4ccc(F)cc4)cc32)[C@@H](CN(C)CCOCCOCCOCCOCCOCCOCCN[C@H](Cc2cccc(F)c2)C(=O)Nc2ccc(-c3ccncc3)cc2)CN1` [Example 13, (R)-24-(3-Fluorobenzyl)-1-((2R,5R)-1-(2-(6-(4-fluorobenzyl)-3,3-dimethyl-2,3-dihydro-1H-pyrrolo[3,2-b]pyridin-1-yl)-2-oxoethyl)-5-methylpiperazin-2-yl)-2-methyl-N-(4-(pyridin-4-yl)phenyl)-5,8,11,14,17,20-hexaoxa-2,23-diazapentacosan-25-amide], the inhibition at 1 µM is under 25% and the inhibition at 10 µM was under 25%.

The term inhibition denotes how much of the control response was suppressed. Read a high inhibition as a strong effect.
